Measured values as given in patent US20260248920A1, “COMPOSITION FOR PREVENTING OR TREATING INFLAMMATORY DISEASES, CONTAINING POLY(ORGANOPHOSPHAZENE) POLYMER” (KOREA INSTITUTE OF SCIENCE AND TECHNOLOGY, priority 2022, published 2026).
Where two headings read alike, the source gives them in different places.

Key:
[1] = system: defective Achilles tendon model; assay: Hydroxyproline content analysis of tendon tissue; format: in vivo, mouse
Description: All experiments using mice were conducted in compliance with the relevant laws and institutional guidelines of the Institutional Animal Care and Use Committee (IACUC) of Korea University Medical Center and received IACUC approval (Approval No. KOREA-2018-0049). […] […] 1 mg) and […] […] To hydrolyze the tendon tissue, 5 mg was immersed in a 6N HCl solution and then heated at 120° C. for 3 hours. After hydrolysis, the tendon tissue was centrifuged at 3000 rpm for 3 minutes, and the supernatant was collected and transferred to a 96-well plate. Thereafter, the 96-well plate was incubated in a dry oven at 60° C. for 12 hours. A Chloramine T reagent (6 μL) was mixed with an oxidation buffer (94 μL), and the mixture was added to each sample or a standard solution. The resulting solution was slowly transferred to a 96-well plate, and a p-dimethylaminobenzaldehyde reagent (100 μL) was added to each sample or standard, and then incubated at 60° C. for 90 minutes. The hydroxyproline content was measured at an optical density of […] using a Flash Multimode Reader (VarioskanTM, Thermo Scientific, USA).

[2] = system: anti-inflammatory cytokines IL-4 and IL-10; assay: RT-PCR of blood in defective Achilles tendon model: anti-inflammatory cytokines; format: in vivo, mice; conditions: 4 weeks
[3] = system: defective Achilles tendon model; assay: Biomechanical test of Achilles tendon (stiffness, tensile strength); format: in vivo, rats
[4] = cited from earlier work
[5] = in vivo; cited from earlier work

Cc1ccc(-c2cc(C(F)(F)F)nn2-c2ccc(S(N)(=O)=O)cc2)cc1 [CXB, Celecoxib]
hydroxyproline content ([1]; injected once per week): 15.3 µg/mg | hydroxyproline content ([1]; injected three times per week): 17.2 µg/mg | IL-4 expression increase compared with control group ([2]; treated once): 1.2 fold | IL-10 expression increase compared with control group ([2]; treated once): 1.3 fold | IL-4 expression increase compared with control group ([2]; treated three times): 1.3 fold | IL-10 expression increase compared with control group ([2]; treated three times): 1.5 fold | stiffness ([3]; injected once per week): 16.4 N/mm | tensile strength ([3]; injected once per week): 12.5 MPa | stiffness ([3]; injected three times per week): 18.6 N/mm

CC1(C)O[C@@H]2C[C@H]3[C@@H]4CCC5=CC(=O)C=C[C@]5(C)[C@@]4(F)[C@@H](O)C[C@]3(C)[C@]2(C(=O)CO)O1 [TCA, triamcinolone acetonide]
half-life ([4]; in vivo): 1.47 h | half-life of TCA without a delivery carrier [5]: 1.27 h

O=C(O)Cc1ccccc1Nc1c(Cl)cccc1Cl [diclofenac]
half-life ([4]; direct IA administration, reported by Larsen et al.): 5.2 h
